Reference: patent US7666845B2, “Compounds having inhibitory activity against sodium-dependent glucose transporter” (Janssen Pharmaceutica N.V., priority 2006, dated 2010)

Biological target: T1, human SGLT2 (Homo sapiens, UniProt P31639)
T1 construct: expressed in transfected cells; host or cells: CHOK1 (Chinese hamster ovary) cells under Geneticin selection
T1 sequence (P31639 1-672): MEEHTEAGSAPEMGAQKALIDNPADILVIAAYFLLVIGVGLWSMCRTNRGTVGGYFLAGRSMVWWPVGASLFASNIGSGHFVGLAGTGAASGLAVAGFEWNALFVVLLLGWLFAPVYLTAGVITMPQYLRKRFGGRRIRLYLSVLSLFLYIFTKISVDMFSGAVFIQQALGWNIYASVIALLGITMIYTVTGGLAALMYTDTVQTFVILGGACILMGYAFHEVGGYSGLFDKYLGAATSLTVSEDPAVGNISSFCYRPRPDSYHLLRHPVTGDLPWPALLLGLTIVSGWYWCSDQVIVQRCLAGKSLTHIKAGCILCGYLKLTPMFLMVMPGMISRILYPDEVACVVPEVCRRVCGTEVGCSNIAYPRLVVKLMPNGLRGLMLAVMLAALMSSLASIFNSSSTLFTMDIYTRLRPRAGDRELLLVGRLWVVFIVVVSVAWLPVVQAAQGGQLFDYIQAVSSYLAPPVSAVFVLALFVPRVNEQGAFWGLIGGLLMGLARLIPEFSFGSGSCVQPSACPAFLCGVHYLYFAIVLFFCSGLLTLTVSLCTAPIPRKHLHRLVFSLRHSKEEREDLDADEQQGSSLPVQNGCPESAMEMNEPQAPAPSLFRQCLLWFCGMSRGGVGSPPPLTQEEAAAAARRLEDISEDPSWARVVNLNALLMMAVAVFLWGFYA
Test: 14C-AMG uptake in CHOK1 cells expressing human SGLT2
Type: cell-based
Settings: 14C-AMG 0.5 mM, 2 hours at 37° C., read-out: Human SGLT2 inhibition IC50
Description: CHOK1 cells expressing human SGLT2 were seeded in 96-well white walled plates at a density of 50,000 cells/well in F-12 nutrient mixture (Ham's F-12) containing 10% fetal bovine serum, 400 μg/ml Geneticin, 50 units/ml sodium penicillin G (Gibco-BRL) and 50 μg/ml streptomycin sulfate. After 2 days of culture at 37° C. in a humidified atmosphere containing 5% CO2, cells were washed once with the assay buffer (137 mM NaCl, 5 mM KCl, 1 mM CaCl2, 1 mM MgCl2, 50 mM Hepes, and 20 mM Tris, pH 7.4) and incubated with 80 μl of the buffer containing test compounds for 10 min at 37° C. Test compounds were dissolved in DMSO. The final concentration of DMSO was 0.5%. The transport reaction was initiated by addition of 20 μl [^14C]-methyl-α-D-glucopyranoside (^14C-AMG, 0.08 uCi per well) solution (final concentration, 0.5 mM). After incubation for 2 hours at 37° C., the uptake was stopped by aspiration of the incubation mixture, the cells were washed three times with ice-cold PBS. Then, cells were solubilized with 0.3 N NaOH and scintalin was added for determination of radioactivity by a liquid scintillation counter. Nonspecific AMG uptake was defined as that which occurred in the presence of 100 μM of phlorizin, a specific inhibitor of sodium-dependent glucose cotransporter. Specific uptake was normalized for the protein concentrations measured by the method of Bradford. […]

IC50: 1100 nM
Compound: Cc1ccc(C2OC(C(=O)O)C(O)C(O)C2O)cc1Cc1ccc(-c2ccc(F)cc2)s1 (stereo not shown) [Compound 1, 6-{3-[5-(4-Fluoro-phenyl)-thiophen-2-ylmethyl]-4-methyl-phenyl}-3,4,5-trihydroxy-tetrahydro-pyran-2-carboxylic acid]
